Test results taken from patent publication US20060069132A1, “Azolecarboxamide herbicides” (priority 2004, published 2006).

Key:
[1] = test system: large crabgrass; assay: Test B pre-/postemergence herbicide test; type: in vivo, Digitaria sanguinalis; conditions: for Crabgrass, Large plant response rating: postemergence, visual rating
Method in brief: (§1)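 Test chemicals in a non-phytotoxic solvent mixture with surfactant were applied preemergence to seeded species and postemergence to plants 2-18 cm tall (1- to 4-leaf stage); rice and barnyardgrass were also tested in a flooded paddy at the 2-leaf stage. Visual rating versus controls after 13-15 days in greenhouse, scale 0 (no effect) to 100 (complete control).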

[2] = test system: barnyardgrass; assay: Test A pre-/postemergence herbicide test; type: in vivo, Echinochloa crus-galli
Method in brief: (§2)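 Visual injury scores on a 0–100 scale (100 = complete control) taken about ten days post-treatment in greenhouse against untreated controls; dash means no result. Treatments: preemergence soil spray and postemergence spray to runoff on one- to two-leaf plants 2 to 10 cm tall, surfactant-containing formulation.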

[3] = test system: large crabgrass; assay: Test A pre-/postemergence herbicide test; type: in vivo, Digitaria sanguinalis
Method in brief: as §2

[4] = test system: blackgrass; assay: Test B postemergence herbicide test; type: in vivo, Alopecurus myosuroides; conditions: scale 0 (no effect) to 100 (complete control); for Plant response rating, Blackgrass: Postemergence, 500 g ai/ha, visual rating after 13 to 15 days; for Blackgrass plant response rating: postemergence, 125 g ai/ha, visual rating
Method in brief: (§3)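 Plants grow to 1- to 4-leaf stage (2–18 cm) for postemergence spraying, or to 2-leaf stage for the paddy test. Formulated compound is applied. Greenhouse holding lasts 13–15 days. Response is scored visually relative to controls, 0 no effect to 100 complete control; a dash means no result.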

[5] = test system: pigweed; assay: Test B pre-/postemergence herbicide test; type: in vivo, Amaranthus retroflexus; conditions: for Pigweed plant response rating: postemergence, visual rating
Method in brief: as §1

[6] = test system: morningglory; assay: Test A pre-/postemergence herbicide test; type: in vivo, Ipomoea spp.
Method in brief: as §2

[7] = test system: wild oat; assay: Test B postemergence herbicide test; type: in vivo, Avena fatua; conditions: scale 0 (no effect) to 100 (complete control); for Plant response rating, Oat, Wild: Postemergence, 500 g ai/ha, visual rating after 13 to 15 days; for Oat, Wild plant response rating: postemergence, 125 g ai/ha, visual rating
Method in brief: (§4)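 Treated at 2-leaf (paddy) or 1–4-leaf, 2–18 cm (postemergence); greenhouse 13–15 d; visual score vs control, 0 none to 100 complete control; dash = not tested.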

[8] = test system: lambsquarters; assay: Test B pre-/postemergence herbicide test; type: in vivo, Chenopodium album; conditions: for Lambsquarters plant response rating: postemergence, visual rating
Method in brief: as §1

[9] = test system: ducksalad; assay: Test B flooded paddy test; type: in vivo, Heteranthera limosa; conditions: 1000 g ai/ha, visual rating, scale 0 to 100 (0 no effect, 100 complete control), 13 to 15 days
Method in brief: as §3

[10] = test system: wheat; assay: Test B postemergence herbicide test; type: in vivo, Triticum aestivum; parameters: key to Wheat plant response rating: 0 = no effect, 100 = complete control; conditions: scale 0 (no effect) to 100 (complete control); for Plant response rating, Wheat: Postemergence, 500 g ai/ha, visual rating after 13 to 15 days; for Wheat plant response rating: postemergence, 125 g ai/ha, visual rating
Method in brief: as §4

[11] = test system: cocklebur; assay: Test B pre-/postemergence herbicide test; type: in vivo, Xanthium strumarium; conditions: for Cocklebur plant response rating: postemergence, visual rating
Method in brief: (§5)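 Species tested were Echinochloa crus-galli, Ipomoea coccinea, Xanthium strumarium and Oryza sativa, treated both before emergence and at the 1- to 4-leaf stage; rice and barnyardgrass were also tested under flooding at 2 leaves. Greenhouse incubation lasted 13–15 days before visual 0–100 scoring.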

[12] = test system: redroot pigweed; assay: Test A pre-/postemergence herbicide test; type: in vivo, Amaranthus retroflexus
Method in brief: as §2

[13] = test system: small flower umbrella sedge; assay: Test B flooded paddy test; type: in vivo, Cyperus difformis; conditions: 1000 g ai/ha, visual rating, scale 0 to 100 (0 no effect, 100 complete control), 13 to 15 days
Method in brief: as §3

[14] = test system: giant foxtail; assay: Test A pre-/postemergence herbicide test; type: in vivo, Setaria faberi
Method in brief: as §2

[15] = test system: rice; assay: Test B flooded paddy test; type: in vivo, Oryza sativa; conditions: 1000 g ai/ha, visual rating, scale 0 to 100 (0 no effect, 100 complete control), 13 to 15 days
Method in brief: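 Paddy species grown to the 2-leaf stage under flooding; blackgrass sprayed postemergence at 2–18 cm (1- to 4-leaf stage). Plants kept in a greenhouse for 13 to 15 days, then visually rated against controls on 0 (no effect) to 100 (complete control).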

[16] = test system: Surinam grass; assay: Test B pre-/postemergence herbicide test; type: in vivo, Urochloa decumbens; conditions: for Surinam Grass plant response rating: postemergence, visual rating
Method in brief: as §1

[17] = test system: velvetleaf; assay: Test A pre-/postemergence herbicide test; type: in vivo, Abutilon theophrasti
Method in brief: as §2

[18] = test system: barnyardgrass; assay: Test B pre-/postemergence herbicide test; type: in vivo, Echinochloa crus-galli; conditions: for Barnyardgrass plant response rating: postemergence, visual rating
Method in brief: as §5

[19] = test system: morningglory; assay: Test B pre-/postemergence herbicide test; type: in vivo, Ipomoea coccinea; conditions: for Morningglory plant response rating: postemergence, visual rating
Method in brief: as §5

[20] = test system: velvetleaf; assay: Test B pre-/postemergence herbicide test; type: in vivo, Abutilon theophrasti; conditions: for Velvetleaf plant response rating: postemergence, visual rating
Method in brief: as §1

[21] = test system: giant foxtail; assay: Test B pre-/postemergence herbicide test; type: in vivo, Setaria faberi; conditions: for Foxtail, Giant plant response rating: postemergence, visual rating
Method in brief: as §1

[22] = test system: barnyardgrass; assay: Test B flooded paddy test; type: in vivo, Echinochloa crus-galli; conditions: 1000 g ai/ha, visual rating, scale 0 to 100 (0 no effect, 100 complete control), 13 to 15 days
Method in brief: as §3

[23] = test system: corn; assay: Test B pre-/postemergence herbicide test; type: in vivo, Zea mays; conditions: for Corn plant response rating: postemergence, visual rating
Method in brief: as §1

[24] = 500 g ai/ha, visual rating 0-100, 0 no effect, 100 complete control, preemergence
[25] = Postemergence, 500 g ai/ha, visual rating after 13 to 15 days, scale 0 (no effect) to 100 (complete control)
[26] = 125 g ai/ha, scale 0 (no effect) to 100 (complete control)
[27] = preemergence, 125 g ai/ha, 0 to 100 scale, 0 is no effect, 100 is complete control
[28] = Postemergence, 500 g ai/ha, 0 to 100 scale, 0 no effect, 100 complete control
[29] = Postemergence, 2000 g ai/ha, 0 to 100 scale, 0 no effect, 100 complete control
[30] = Preemergence, 500 g ai/ha, visual rating, 0 to 100 scale (0 no effect, 100 complete control)
[31] = Preemergence, 2000 g ai/ha, visual rating, 0 to 100 scale (0 no effect, 100 complete control)
[32] = Postemergence, 125 g ai/ha, 0 to 100 scale, 0 no effect, 100 complete control
[33] = preemergence, 125 g ai/ha, visual injury, 0 to 100 scale (0 no effect, 100 complete control)

CC(=NO)c1cc(NC(=O)c2cc(C(C)(C)C)nn2C)ccc1F [Compound 109]
Plant response rating, Crabgrass, Large [1, 24]: 100
Plant response rating, Crabgrass, Large [1, 25]: 10
Crabgrass, Large plant response rating [1, 26]: 10
Plant response rating, Crabgrass, Large [1, 27]: 80
Barnyardgrass plant response rating [2, 28]: 75
Plant response rating, Barnyardgrass [2, 29]: 90
Barnyardgrass plant response rating [2, 30]: 85
Barnyardgrass plant response rating [2, 31]: 90
Crabgrass, Large plant response rating [3, 28]: 20
Plant response rating, Crabgrass, Large [3, 29]: 55
Crabgrass, Large plant response rating [3, 30]: 80
Crabgrass, Large plant response rating [3, 31]: 95
Plant response rating, Blackgrass [4]: 20
Blackgrass plant response rating [4]: 0
Plant response rating, Pigweed [5, 24]: 100
Plant response rating, Pigweed [5, 25]: 70
Pigweed plant response rating [5, 26]: 20
Plant response rating, Pigweed [5, 27]: 30
Morningglory plant response rating [6, 28]: 25
Plant response rating, Morningglory [6, 29]: 40
Morningglory plant response rating [6, 30]: 35
Morningglory plant response rating [6, 31]: 45
Plant response rating, Oat, Wild [7]: 30
Oat, Wild plant response rating [7]: 20
Plant response rating, Lambsquarters [8, 24]: 90
Plant response rating, Lambsquarters [8, 25]: 20
Lambsquarters plant response rating [8, 26]: 10
Plant response rating, Lambsquarters [8, 27]: 20
Ducksalad plant response rating [9]: 90
Plant response rating, Wheat [10]: 20
Wheat plant response rating [10]: 10
Plant response rating, Cocklebur [11, 24]: 20
Plant response rating, Cocklebur [11, 25]: 70
Cocklebur plant response rating [11, 26]: 30
Plant response rating, Cocklebur [11, 27]: 0
Pigweed plant response rating [12, 28]: 100
Plant response rating, Pigweed [12, 29]: 100
Pigweed plant response rating [12, 30]: 75
Pigweed plant response rating [12, 31]: 100
Sedge, Umbrella plant response rating [13]: 60
Foxtail, Giant plant response rating [14, 28]: 55
Plant response rating, Foxtail, Giant [14, 29]: 90
Foxtail, Giant plant response rating [14, 30]: 80
Foxtail, Giant plant response rating [14, 31]: 90
Rice plant response rating [15]: 70
Plant response rating, Surinam Grass [16, 24]: 80
Plant response rating, Surinam Grass [16, 25]: 20
Surinam Grass plant response rating [16, 26]: 10
Plant response rating, Surinam Grass [16, 27]: 60
Velvetleaf plant response rating [17, 28]: 25
Plant response rating, Velvetleaf [17, 29]: 45
Velvetleaf plant response rating [17, 30]: 15
Velvetleaf plant response rating [17, 31]: 25
Plant response rating, Barnyardgrass [18, 24]: 100
Plant response rating, Barnyardgrass [18, 25]: 20
Barnyardgrass plant response rating [18, 26]: 10
Plant response rating, Barnyardgrass [18, 27]: 80
Plant response rating, Morningglory [19, 24]: 100
Plant response rating, Morningglory [19, 25]: 10
Morningglory plant response rating [19, 26]: 0
Plant response rating, Morningglory [19, 27]: 10
Plant response rating, Velvetleaf [20, 24]: 60
Plant response rating, Velvetleaf [20, 25]: 20
Velvetleaf plant response rating [20, 26]: 10
Plant response rating, Velvetleaf [20, 27]: 20
Plant response rating, Foxtail, Giant [21, 24]: 100
Plant response rating, Foxtail, Giant [21, 25]: 20
Foxtail, Giant plant response rating [21, 26]: 20
Plant response rating, Foxtail, Giant [21, 27]: 70
Barnyardgrass plant response rating [22]: 80
Plant response rating, Corn [23, 24]: 10
Plant response rating, Corn [23, 25]: 20
Corn plant response rating [23, 26]: 10
Plant response rating, Corn [23, 27]: 0

CC(=NO)c1cccc(NC(=O)c2cc(C(C)(C)C)nn2C(C)C)c1 [Compound 110]
Plant response rating, Crabgrass, Large [1, 24]: 100
Plant response rating, Crabgrass, Large [1, 25]: 20
Crabgrass, Large plant response rating [1, 26]: 10
Plant response rating, Crabgrass, Large [1, 27]: 80
Barnyardgrass plant response rating [2, 32]: 30
Barnyardgrass plant response rating [2, 28]: 30
Barnyardgrass plant response rating [2, 30]: 5
Barnyardgrass plant response rating [2, 33]: 10
Crabgrass, Large plant response rating [3, 32]: 25
Crabgrass, Large plant response rating [3, 28]: 30
Crabgrass, Large plant response rating [3, 30]: 20
Crabgrass, Large plant response rating [3, 33]: 15
Plant response rating, Blackgrass [4]: 0
Blackgrass plant response rating [4]: 0
Plant response rating, Pigweed [5, 24]: 10
Plant response rating, Pigweed [5, 25]: 50
Pigweed plant response rating [5, 26]: 20
Plant response rating, Pigweed [5, 27]: 0
Morningglory plant response rating [6, 32]: 0
Morningglory plant response rating [6, 28]: 10
Morningglory plant response rating [6, 30]: 20
Morningglory plant response rating [6, 33]: 10
Plant response rating, Oat, Wild [7]: 0
Oat, Wild plant response rating [7]: 0
Plant response rating, Lambsquarters [8, 24]: 90
Plant response rating, Lambsquarters [8, 25]: 60
Lambsquarters plant response rating [8, 26]: 40
Plant response rating, Lambsquarters [8, 27]: 20
Ducksalad plant response rating [9]: 0
Plant response rating, Wheat [10]: 30
Wheat plant response rating [10]: 10
Plant response rating, Cocklebur [11, 24]: 10
Plant response rating, Cocklebur [11, 25]: 40
Cocklebur plant response rating [11, 26]: 10
Plant response rating, Cocklebur [11, 27]: 0
Pigweed plant response rating [12, 32]: 40
Pigweed plant response rating [12, 28]: 50
Pigweed plant response rating [12, 30]: 10
Pigweed plant response rating [12, 33]: 10
Sedge, Umbrella plant response rating [13]: 20
Foxtail, Giant plant response rating [14, 32]: 20
Foxtail, Giant plant response rating [14, 28]: 25
Foxtail, Giant plant response rating [14, 30]: 0
Foxtail, Giant plant response rating [14, 33]: 0
Rice plant response rating [15]: 20
Plant response rating, Surinam Grass [16, 24]: 10
Plant response rating, Surinam Grass [16, 25]: 30
Surinam Grass plant response rating [16, 26]: 20
Plant response rating, Surinam Grass [16, 27]: 10
Velvetleaf plant response rating [17, 32]: 10
Velvetleaf plant response rating [17, 28]: 10
Velvetleaf plant response rating [17, 30]: 10
Velvetleaf plant response rating [17, 33]: 10
Plant response rating, Barnyardgrass [18, 24]: 10
Plant response rating, Barnyardgrass [18, 25]: 20
Barnyardgrass plant response rating [18, 26]: 10
Plant response rating, Barnyardgrass [18, 27]: 10
Plant response rating, Morningglory [19, 24]: 60
Plant response rating, Morningglory [19, 25]: 30
Morningglory plant response rating [19, 26]: 20
Plant response rating, Morningglory [19, 27]: 20
Plant response rating, Velvetleaf [20, 24]: 10
Plant response rating, Velvetleaf [20, 25]: 40
Velvetleaf plant response rating [20, 26]: 30
Plant response rating, Velvetleaf [20, 27]: 0
Plant response rating, Foxtail, Giant [21, 24]: 20
Plant response rating, Foxtail, Giant [21, 25]: 10
Foxtail, Giant plant response rating [21, 26]: 10
Plant response rating, Foxtail, Giant [21, 27]: 10
Barnyardgrass plant response rating [22]: 30
Plant response rating, Corn [23, 24]: 0
Plant response rating, Corn [23, 25]: 20
Corn plant response rating [23, 26]: 10
Plant response rating, Corn [23, 27]: 0
